Assay results from BindingDB's records for doi:10.1021/jm0211063 (Sapienza University of Rome, 2003).

What was measured:
[1] = molecular target: T1, Gag-Pol polyprotein [588-1027,K690N]/[588-1147,K690N] (Human immunodeficiency virus 1, UniProt P04585, K690N); assay: HIV-1 RT Assay; conditions: pH 7.8; 37 °C
T1 construct: 588-1027; 588-1147

[2] = molecular target: T2, Gag-Pol polyprotein [588-1127,Y768C]/[588-1147,Y768C] (Human immunodeficiency virus 1, UniProt P04585, Y768C); assay: HIV-1 RT Assay; conditions: pH 7.8; 37 °C
T2 construct: 588-1127; 588-1147

| SMILES | IC50 [1] | IC50 [2] |
| --- | --- | --- |
| Cc1ccc(S(=O)(=O)c2c(C(N)=O)[nH]c3ccc(Cl)cc23)cc1 [5-chloro-3-[(4-methylbenzene)sulfonyl]-1H-indole-2-carboxamide] | > 5000 nM | 110 nM |
| NC(=O)c1[nH]c2ccc(Cl)cc2c1S(=O)(=O)c1ccccc1 [5Cl3PhSO2-2IndolCONH2] | > 5000 nM | 160 nM |
| Cc1cc(C)cc(S(=O)(=O)c2c(C(N)=O)[nH]c3ccc(Cl)cc23)c1 [5-chloro-3-[(3,5-dimethylbenzene)sulfonyl]-1H-indole-2-carboxamide] | > 5000 nM | 130 nM |
